Test results: patent publication US8710055B2, “Triazolylphenyl sulfonamides as serine/threonine kinase inhibitors” (Boehringer Ingelheim International GmbH, priority 2010, dated 2014)

System: SK-MEL-28 cells (B-RAF V600E mutated)
Assay: Inhibition of the proliferation of cultivated human melanoma cells (SK-MEL-28), AlamarBlue
Format: cell-based
Conditions: 72 h incubation
Experimental: Measurement of the Inhibition of the Proliferation of Cultivated Human Melanoma Cells (SK-MEL-28, B-RAF^[…] Mutated)
For measuring the proliferation of cultivated human tumour cells, cells of the melanoma cell line SK-MEL-28 [from American Type Culture Collection (ATCC)] are cultivated in MEM medium, supplemented with 10% foetal calf serum, 2% sodium bicarbonate, 1 mM sodium pyruvate, 1% non-essential amino acids (e.g. from Cambrex, # BE13-114E) and 2 mM glutamine. SK-MEL-28 cells are placed in 96-well flat bottomed dishes in a density of 2500 cells per well in supplemented MEM medium (see above) and incubated overnight in an incubator (at 37° C. and 5% CO2). The active substances are added to the cells in different concentrations, so that a concentration range of 50 μM to 3.2 nM is covered. If necessary the initial concentration of 50 μM is changed to 10 μM or 2 μM and further dilution is carried out accordingly (up to 0.6 nM or 0.12 nM). After an incubation period of a further 72 h 20 μL AlamarBlue reagent (Serotec Ltd., # BUF012B) are added to each well and the cells are incubated for a further 3-6 h. The colour change of the AlamarBlue reagent is determined in a fluorescence spectrophotometer (e.g. Gemini, Molecular Devices). EC50 values are calculated using a software program (GraphPadPrizm).

| Structure (SMILES) | EC50 [µM] |
| --- | --- |
| COc1cncc(-c2cn(-c3c(F)ccc(NS(=O)(=O)c4ccoc4)c3F)nn2)c1 [Example I-45] | 0.024 |
| CC(C)CS(=O)(=O)Nc1ccc(F)c(-n2cc(-c3cncc(N4CCN(C5CC5)CC4)c3)nn2)c1F [Example I-29] | 0.037 |
| CCCS(=O)(=O)Nc1ccc(F)c(-n2cc(-c3cncc(N4CCN(CCOC(C)C)CC4)c3)nn2)c1F [Example I-16] | 0.087 |
| O=S(=O)(Nc1ccc(F)c(-n2cc(-c3cncc(N4CCN(CC5CC5)CC4)c3)nn2)c1Cl)c1ccoc1 [Example I-54] | 0.007 |
| COc1cncc(-c2cn(-c3c(F)ccc(NS(=O)(=O)C(C)C)c3F)nn2)c1 [Example I-19] | 0.493 |
